# Measurements as given in EP3246325A1, “2-ACYLAMINOTHIAZOLE COMPOUND CRYSTALS” (priority 2011, dated 2013).
# Structures can show the parent of a compound that is named as a salt.
# Experiments:
# human c-mpl-Ba/F3 cell = assay: Mouse oral administration test: blood plasma after oral dosing added to the human c-mpl-Ba/F3 cell proliferation test system; type: in vivo, male ICR mice; conditions: 3 mg/kg orally; for oral absorption: verbal conclusion from Table 1, mice; for Cell proliferation activity (%): male ICR mice, blood sampled 2 hours after administration, maximum activity of each test compound = 100%
# Experimental: Test Example 2: Mouse Oral Administration Test 3 mg/kg of the test compound suspended in an aqueous solution of 0.5% methylcellulose was orally administered to male ICR mice. […] Table 1 Human c-mpl-Ba/F3 cell proliferation activity of […] after orally administering test compounds
# [1] = tested on: Ba/F3 cells where c-mpl was not introduced; assay: Cell proliferation test with Ba/F3 cells where c-mpl was not introduced (counter-test); type: cell-based
# Human c-mpl-Ba/F3 cells = assay: Cell proliferation test for human c-mpl-Ba/F3 cells (WST-1/1-methoxy PMS absorbance); conditions: based on the maximum cell proliferation activity of rhTPO being 100%
# Experimental: Test Example 1 Cell Proliferation Test for Human c-mpl-Ba/F3 Cells
# Human c-mpl-Ba/F3 cells at a concentration of 2 x 10^5 cells/mL were cultured at 37 degree C on a 96 well microplate using RPMI 1640 culture medium (100 microliter/ well) containing 10% fetal calf serum to which various concentrations of the test compound was added. After 24 hours from the start of culturing, 10 microliter/well of WST-1/1-methoxy PMS (cell measuring kit, Dojin) was added. Immediately after the addition and two hours later, the A450/A650 absorbance was measured using a microplate reader (Model 3350, Bio-Rad), and the increase in absorbance after 2 hours was interpreted to represent the proliferation activity of each test compound.
structure (smiles),measurement,setting,value
O=C(Nc1nc(-c2cc(Cl)cs2)c(N2CCN(C3CCCCC3)CC2)s1)c1cnc(N2CCC(C(=O)O)CC2)c(Cl)c1.O=C(O)/C=C\C(=O)O [1-(3-chloro-5-{[4-(4-chlorothiophen-2-yl)-5-(4-cyclohexylpiperazin-1-yl)thiazol-2-yl]carbamoyl}pyridin-2-yl) piperidine-4-carboxylic acid maleic acid salt],oral absorption,"human c-mpl-Ba/F3 cell; listed as compound X maleic acid salt C type crystal, 3 mg/kg",excellent oral absorption
O=C(Nc1nc(-c2cc(Cl)cs2)c(N2CCN(C3CCCCC3)CC2)s1)c1cnc(N2CCC(C(=O)O)CC2)c(Cl)c1 [listing 1 of 2 here],oral absorption,human c-mpl-Ba/F3 cell,excellent oral absorption
O=C(Nc1nc(-c2cc(Cl)cs2)c(N2CCN(C3CCCCC3)CC2)s1)c1cnc(N2CCC(C(=O)O)CC2)c(Cl)c1 [listing 2 of 2 here],cell proliferation effect,[1],a cell proliferation effect was not observed
same,Emax,Human c-mpl-Ba/F3 cells,102%
O=C(Nc1nc(-c2cc(Cl)cs2)c(N2CCN(C3CCCCC3)CC2)s1)c1cnc(N2CCC(C(=O)O)CC2)c(Cl)c1.O=C(O)/C=C\C(=O)O [1-(3-chloro-5-{ [4-(4-chlorothiophen-2-yl)-5-(4-cyclohexylpiperazin-1-yl)thiazol-2-yl]carbamoyl}pyridin-2-yl) piperidine-4-carboxylic acid maleic acid salt],Cell proliferation activity (%),human c-mpl-Ba/F3 cell; 0.3% blood plasma concentration,< 10%
same,oral absorption,"human c-mpl-Ba/F3 cell; listed as compound X maleic acid B type crystals, 3 mg/kg",inferior oral absorption
"O=C(Nc1nc(-c2cc(Cl)cs2)c(N2CCN(C3CCCCC3)CC2)s1)c1cnc(N2CCC(C(=O)O)CC2)c(Cl)c1 [Compound X hydrochloride, reference compound]",Cell proliferation activity (%),human c-mpl-Ba/F3 cell; 10% blood plasma concentration,34%
